≈ marks a conversion by molar mass, not a printed value. Where a SMILES comes first, the peptide text is derived from it.
Test: Solubility in CPME (cyclopentyl methyl ether), dissolved to saturation at 25° C.
Assay type: physicochemical
Details: dissolved to saturation in CPME (cyclopentyl methyl ether) at 25° C.
Description: Peptide used as a model: H-Phe-Leu-Gly-OH
H-Phe-Leu-Gly-OH and H-Phe-Leu-Gly-O-(TIPS2-4,4′-diClTrt) were synthesized, and the respective compounds were dissolved to saturation in CPME (cyclopentyl methyl ether) at 25° C. Thus, the solubilities were measured.

| Compound | solubility [mM] |
| --- | --- |
| CC(C)C[C@H](NC(=O)[C@@H](N)Cc1ccccc1)C(=O)NCC(=O)O [H-Phe-Leu-Gly-OH] (H-Phe-Leu-Gly-OH) | 0.9 (≈ 0.302 mg/mL) |
| CC(C)C[C@H](NC(=O)[C@@H](N)Cc1ccccc1)C(=O)NCC(=O)OC(c1ccc(Cl)cc1)(c1ccc(Cl)cc1)c1cc(OCCCCCCCCCCCO[Si](C(C)C)(C(C)C)C(C)C)cc(OCCCCCCCCCCCO[Si](C(C)C)(C(C)C)C(C)C)c1 [H-Phe-Leu-Gly-O-(TIPS2-4,4′-diClTrt)] | ≥ 1030 |

Source: patent US10981940B2, “Trityl protecting agent” (SEKISUI MEDICAL CO., LTD., priority 2016, dated 2021)
